In brackets after ≈: the same amount, converted by molar mass. Like-named read-outs stand apart in the source and are kept apart here.
Legend:
S. aureus ATCC 29213 [1] = assay: MIC, microdilution in CAMHB 24 h, with or without tomatidine/compound; assay type: cell-based, Staphylococcus aureus; details: for MIC: Staphylococcus aureus
S. aureus ATCC 29213 [2] = assay: Checkerboard assay, aminoglycoside and tomatidine; assay type: cell-based, Staphylococcus aureus; details: for MIC: Staphylococcus aureus, ATCC29213, checkerboard
Protocol: This checkerboard protocol (Eliopoulos and Moellering, 1996) was conducted by a microdilution method similar to that use for standard MICs determination. In 96 wells plates, antibiotics were loaded at a 4× concentration (where X is the maximal tested concentration) in well A1 and at a 2× concentration in the others wells of the column 1. Antibiotics were serially diluted 1:1 from the column 2 to column 10. […] Wells A12, B12, […] are positive untreated controls whereas wells […] are negative non-inoculated controls. […] The FIC index was calculated as follow (Eliopoulos and Moellering, 1996): FIC […]/MICB, where A and B are MICs of compounds A and B in combination and where MICA and MICB are the MICs of compound A alone and of compound B alone, respectively, and FICA and FICB are the FICs of compound A and of compound B, respectively.

S. aureus 8325-4 = assay: MIC, microdilution in CAMHB 24 h; assay type: cell-based, Staphylococcus aureus; details: 8325-4; for MIC: Staphylococcus aureus, 83254
S. aureus Newbould = assay: MIC, microdilution in CAMHB 24 h; assay type: cell-based, Staphylococcus aureus; details: Newbould; for MIC: Staphylococcus aureus
S. aureus SHY97-3906 = assay: MIC, microdilution in CAMHB 24 h; assay type: cell-based, Staphylococcus aureus; details: for MIC: Staphylococcus aureus, SHY973906
S. aureus ATCC 43300 = assay: MIC, microdilution in CAMHB 24 h; assay type: cell-based, Staphylococcus aureus; details: ATCC 43300; for MIC: Staphylococcus aureus
S. aureus N315 = assay: microbe, parasite or virus in culture; assay type: cell-based, Staphylococcus aureus; details: for MIC: Staphylococcus aureus
S. aureus Newman = assay: MIC, microdilution in CAMHB 24 h; assay type: cell-based, Staphylococcus aureus; details: Newman; for MIC: Staphylococcus aureus
S. aureus MRSA COL = assay: MIC, microdilution in CAMHB 24 h; assay type: cell-based, Staphylococcus aureus; details: MRSA COL; for MIC: Staphylococcus aureus
S. aureus Sa220c = assay: MIC, microdilution in CAMHB 24 h; assay type: cell-based, Staphylococcus aureus; details: Sa220c; for MIC: Staphylococcus aureus
S. aureus CF1A-L = assay: MIC, microdilution in CAMHB 24 h; assay type: cell-based, Staphylococcus aureus; details: CF1A-L; for MIC: Staphylococcus aureus, CF1AL
S. aureus CF4B-L = assay: MIC, microdilution in CAMHB 24 h; assay type: cell-based, Staphylococcus aureus; details: CF4B-L; for MIC: Staphylococcus aureus, CF4BL
S. aureus CF6B-L = assay: MIC, microdilution in CAMHB 24 h; assay type: cell-based, Staphylococcus aureus; details: CF6B-L; for MIC: Staphylococcus aureus, CF6BL
S. aureus CF7A-L = assay: MIC, microdilution in CAMHB 24 h; assay type: cell-based, Staphylococcus aureus; details: CF7A-L; for MIC: Staphylococcus aureus
S. aureus CF8E-L = assay: MIC, microdilution in CAMHB 24 h; assay type: cell-based, Staphylococcus aureus; details: CF8E-L; for MIC: Staphylococcus aureus, CF8EL
S. aureus CF9A-L = assay: MIC, microdilution in CAMHB 24 h; assay type: cell-based, Staphylococcus aureus; details: CF9A-L; for MIC: Staphylococcus aureus
S. aureus CF35A-L = assay: MIC, microdilution in CAMHB 24 h; assay type: cell-based, Staphylococcus aureus; details: CF35A-L; for MIC: Staphylococcus aureus
S. aureus CF07-L = assay: MIC, microdilution in CAMHB 24 h; assay type: cell-based, Staphylococcus aureus; details: CF07-L; for MIC: Staphylococcus aureus, CF07L
S. aureus ATCC 29213 [3] = assay: Time-kill experiments, aminoglycoside alone or with tomatidine (FIGS. 8-10)
[4] = 8 μg/ml of tomatidine, read-out: MIC +TO
[5] = absence of tomatidine, read-out: MIC −TO
[6] = Human (CF lungs), read-out: MIC
[7] = Human (CF lungs), MRSA, read-out: MIC

## NC[C@H]1O[C@H](O[C@H]2[C@H](O)[C@@H](O[C@H]3O[C@H](CO)[C@@H](O)[C@H](N)[C@H]3O)[C@H](N)C[C@@H]2N)[C@H](O)[C@@H](O)[C@@H]1O [Kanamycin, kanamycin]
S. aureus ATCC 29213 [1]; ATCC 29123, 8 μg/ml of tomatidine
  Fold (−TO/+TO): 4-8 fold
S. aureus ATCC 29213 [1]; ATCC 29213, tomatidine at 8 μg/ml
  Fold (−TO/+TO): 4-8 fold
S. aureus ATCC 29213 [1]; ATCC 29123 / ATCC 29213, ATCC 29123, 8 μg/ml of tomatidine, read-out: MIC +TO
  MIC: 0.5 µg/mL (≈ 1.03 µM)
S. aureus ATCC 29213 [1]; ATCC 29123 / ATCC 29213, ATCC 29123, absence of tomatidine, read-out: MIC −TO
  MIC: 2 to 4 µg/mL (≈ 4.13 to 8.26 µM)
S. aureus ATCC 29213 [1]; ATCC29213, ATCC 29213, Human (SSTI), read-out: MIC
  MIC: 2 to 4 µg/mL (≈ 4.13 to 8.26 µM)
S. aureus ATCC 29213 [1]; ATCC29213, ATCC 29213, absence of tomatidine, read-out: MIC −TO
  MIC: 2 to 4 µg/mL (≈ 4.13 to 8.26 µM)
S. aureus ATCC 29213 [1]; ATCC29213, ATCC 29213, presence of tomatidine at 8 μg/ml, read-out: MIC +TO
  MIC: 0.5 µg/mL
S. aureus ATCC 29213 [2]; tomatidine 0 μg/ml
  MIC: 2 to 4 µg/mL
S. aureus ATCC 29213 [2]; tomatidine 0.06 μg/ml
  MIC: 2 µg/mL
S. aureus ATCC 29213 [2]; tomatidine 0.12 μg/ml
  MIC: 0.5 to 1 µg/mL
S. aureus ATCC 29213 [2]; tomatidine 0.25 μg/ml
  MIC: 0.5 µg/mL
S. aureus ATCC 29213 [2]; tomatidine 0.5 μg/ml
  MIC: 0.5 µg/mL
S. aureus ATCC 29213 [2]; tomatidine 1 μg/ml
  MIC: 0.5 to 1 µg/mL
S. aureus ATCC 29213 [2]; tomatidine 2 μg/ml
  MIC: 0.25 to 0.5 µg/mL
S. aureus ATCC 29213 [2]; tomatidine 4 μg/ml
  MIC: 0.5 µg/mL
S. aureus ATCC 29213 [2]; tomatidine 8 μg/ml
  MIC: 0.5 µg/mL
S. aureus ATCC 29213 [2]; aminoglycoside with tomatidine, tomatidine MIC considered 32 μg/ml, values overestimated
  FIC index: ≦0.193
S. aureus 8325-4; 8 μg/ml of tomatidine
  Fold (−TO/+TO): 2-4 fold
S. aureus 8325-4; [4]
  MIC: 0.5 to 4 µg/mL (≈ 1.03 to 8.26 µM)
S. aureus 8325-4; Laboratory strain, read-out: MIC
  MIC: 2 to 8 µg/mL (≈ 4.13 to 16.5 µM)
S. aureus 8325-4; [5]
  MIC: 2 to 8 µg/mL (≈ 4.13 to 16.5 µM)
S. aureus Newbould; 8 μg/ml of tomatidine
  Fold (−TO/+TO): 8 fold
S. aureus Newbould; [4]
  MIC: 0.5 µg/mL (≈ 1.03 µM)
S. aureus Newbould; Cow (mastitis), read-out: MIC
  MIC: 4 µg/mL (≈ 8.26 µM)
S. aureus Newbould; [5]
  MIC: 4 µg/mL (≈ 8.26 µM)
S. aureus SHY97-3906; SHY-3906, 8 μg/ml of tomatidine
  Fold (−TO/+TO): 4 fold
S. aureus SHY97-3906; SHY97-3906, Cow (mastitis), read-out: MIC
  MIC: 2 µg/mL (≈ 4.13 µM)
S. aureus SHY97-3906; SHY-3906, 8 μg/ml of tomatidine, read-out: MIC +TO
  MIC: 0.5 µg/mL (≈ 1.03 µM)
S. aureus SHY97-3906; SHY-3906, absence of tomatidine, read-out: MIC −TO
  MIC: 2 µg/mL (≈ 4.13 µM)
S. aureus ATCC 43300; 8 μg/ml of tomatidine
  Fold (−TO/+TO): 2-4 fold
S. aureus ATCC 43300; ATCC 43300 / MRSA, Human (HA), MRSA, read-out: MIC
  MIC: 512 to 1020 µg/mL (≈ 1060 to 2110 µM)
S. aureus ATCC 43300; ATCC43300, 8 μg/ml of tomatidine, read-out: MIC +TO
  MIC: 256 µg/mL (≈ 528 µM)
S. aureus ATCC 43300; ATCC43300, absence of tomatidine, read-out: MIC −TO
  MIC: 512 to 1020 µg/mL (≈ 1060 to 2110 µM)
S. aureus N315; N315, 8 μg/ml of tomatidine
  Fold (−TO/+TO): 4 fold
S. aureus N315; N315, read-out: MIC +TO
  MIC: 64 µg/mL (≈ 132 µM)
S. aureus N315; N315, read-out: MIC −TO
  MIC: 256 µg/mL (≈ 528 µM)
S. aureus Newman; 8 μg/ml of tomatidine
  Fold (−TO/+TO): 8 fold
S. aureus Newman; [4]
  MIC: 0.5 µg/mL (≈ 1.03 µM)
S. aureus Newman; Human (Osteo), read-out: MIC
  MIC: 4 µg/mL (≈ 8.26 µM)
S. aureus Newman; [5]
  MIC: 4 µg/mL (≈ 8.26 µM)
S. aureus MRSA COL; 8 μg/ml of tomatidine
  Fold (−TO/+TO): 8 fold
S. aureus MRSA COL; [4]
  MIC: 0.5 µg/mL (≈ 1.03 µM)
S. aureus MRSA COL; Human (SSTI), read-out: MIC
  MIC: 4 µg/mL (≈ 8.26 µM)
S. aureus MRSA COL; [5]
  MIC: 4 µg/mL (≈ 8.26 µM)
S. aureus Sa220c; 8 μg/ml of tomatidine
  Fold (−TO/+TO): 8 fold
S. aureus Sa220c; [4]
  MIC: 0.5 µg/mL (≈ 1.03 µM)
S. aureus Sa220c; Human (SSTI), MRSA, read-out: MIC
  MIC: 4 µg/mL (≈ 8.26 µM)
S. aureus Sa220c; [5]
  MIC: 4 µg/mL (≈ 8.26 µM)
S. aureus CF1A-L; 8 μg/ml of tomatidine
  Fold (−TO/+TO): 8 fold
S. aureus CF1A-L; [4]
  MIC: 0.5 µg/mL (≈ 1.03 µM)
S. aureus CF1A-L; [6]
  MIC: 4 µg/mL (≈ 8.26 µM)
S. aureus CF1A-L; [5]
  MIC: 4 µg/mL (≈ 8.26 µM)
S. aureus CF4B-L; 8 μg/ml of tomatidine
  Fold (−TO/+TO): 8 fold
S. aureus CF4B-L; [4]
  MIC: 0.5 µg/mL (≈ 1.03 µM)
S. aureus CF4B-L; [6]
  MIC: 4 µg/mL (≈ 8.26 µM)
S. aureus CF4B-L; [5]
  MIC: 4 µg/mL (≈ 8.26 µM)
S. aureus CF6B-L; 8 μg/ml of tomatidine
  Fold (−TO/+TO): 4-8 fold
S. aureus CF6B-L; aac(6′)-aph(2″), 8 μg/ml of tomatidine, read-out: MIC +TO
  MIC: 128 to 256 µg/mL (≈ 264 to 528 µM)
S. aureus CF6B-L; aac(6′)-aph(2″), absence of tomatidine, read-out: MIC −TO
  MIC: 1020 µg/mL (≈ 2110 µM)
S. aureus CF6B-L; [6]
  MIC: 1020 µg/mL (≈ 2110 µM)
S. aureus CF7A-L; 8 μg/ml of tomatidine
  Fold (−TO/+TO): 2-4 fold
S. aureus CF7A-L; CF7AL, ant(4′)-Ia, 8 μg/ml of tomatidine, read-out: MIC +TO
  MIC: 64 to 256 µg/mL (≈ 132 to 528 µM)
S. aureus CF7A-L; CF7AL, ant(4′)-Ia, absence of tomatidine, read-out: MIC −TO
  MIC: 256 to 512 µg/mL (≈ 528 to 1060 µM)
S. aureus CF7A-L; [7]
  MIC: 256 to 512 µg/mL (≈ 528 to 1060 µM)
S. aureus CF8E-L; 8 μg/ml of tomatidine
  Fold (−TO/+TO): 2-4 fold
S. aureus CF8E-L; [4]
  MIC: 2 to 8 µg/mL (≈ 4.13 to 16.5 µM)
S. aureus CF8E-L; [6]
  MIC: 16 µg/mL (≈ 33 µM)
S. aureus CF8E-L; [5]
  MIC: 16 µg/mL (≈ 33 µM)
S. aureus CF9A-L; 8 μg/ml of tomatidine
  Fold (−TO/+TO): 1-2 fold
S. aureus CF9A-L; CF9AL, ant(4′)-Ia, 8 μg/ml of tomatidine, read-out: MIC +TO
  MIC: 128 to 256 µg/mL (≈ 264 to 528 µM)
S. aureus CF9A-L; CF9AL, ant(4′)-Ia, absence of tomatidine, read-out: MIC −TO
  MIC: 256 µg/mL (≈ 528 µM)
S. aureus CF9A-L; [7]
  MIC: 256 µg/mL (≈ 528 µM)
S. aureus CF35A-L; 8 μg/ml of tomatidine
  Fold (−TO/+TO): 4 fold
S. aureus CF35A-L; CF35AL, 8 μg/ml of tomatidine, read-out: MIC +TO
  MIC: 1 µg/mL (≈ 2.06 µM)
S. aureus CF35A-L; CF35AL, absence of tomatidine, read-out: MIC −TO
  MIC: 4 µg/mL (≈ 8.26 µM)
S. aureus CF35A-L; [7]
  MIC: 4 µg/mL (≈ 8.26 µM)
S. aureus CF07-L; 8 μg/ml of tomatidine
  Fold (−TO/+TO): 4-8 fold
S. aureus CF07-L; [4]
  MIC: 0.5 to 1 µg/mL (≈ 1.03 to 2.06 µM)
S. aureus CF07-L; [6]
  MIC: 4 µg/mL (≈ 8.26 µM)
S. aureus CF07-L; [5]
  MIC: 4 µg/mL (≈ 8.26 µM)

## C[C@H]1CC[C@]2(NC1)O[C@H]1C[C@H]3[C@@H]4CC[C@H]5C[C@@H](O)CC[C@]5(C)[C@H]4CC[C@]3(C)[C@H]1[C@@H]2C [Tomatidine, tomatidine]
S. aureus ATCC 29213 [3]; combination of tomatidine (8 μg/ml) and gentamicin, FIG. 10
  emergence of resistant CFU: significantly reduced the emergence
S. aureus ATCC 29213 [3]; cultures exposed to gentamicin 0.5 to 4 μg/ml for 24 h, with 8 μg/ml tomatidine, FIG. 10
  number of CFU recovered: significantly decrease
S. aureus ATCC 29213 [3]; tomatidine at 8 μg/ml with aminoglycoside 1 μg/ml, 24 h, FIG. 9
  regrowth of bacteria exposed to gentamicin or tobramycin: markedly reduced the regrowth
